Literature values as cited in patent US11439715B2, “Compositions and methods to detect GLUA1 in brain and to identify the presence of GLUA1-mediated post-traumatic stress disorder and other neurological disorders” (Neurovation Labs, Inc., priority 2017, dated 2022).
Entries after “also recorded” stand apart in the source; their conditions may differ. Where two headings read alike, the source gives them in different places.

Legend:
[1] = system: Stress-Enhanced Fear Learning (SEFL), a rodent model of PTSD
[2] = system: GluA1; conditions: stressed rats, metyrapone given before the trauma, measured three weeks after the trauma
[3] = system: GluN1; conditions: stressed and unstressed rats, measured three weeks after the trauma
[4] = system: GluA2; conditions: stressed and unstressed rats, measured three weeks after the trauma

| SMILES | percent freezing in Context B on Day 3 (sensitized fear, SEFL) ([1]; intra-BLA infusion post-trauma, compared with stressed controls (ACSF or MSO), hydrobromide) | GluA1 protein levels in the BLA (GluA1:GAPDH optical density ratio) [2] | GluA1 protein levels in the BLA (GluA1:GAPDH optical density ratio) ([2]; listed as metyrapone) | GluN1 levels in the BLA (GluN1:GAPDH optical density ratio) [3] | GluA2 levels in the BLA (GluA2:GAPDH optical density ratio) [4] | SEFL (stress-enhanced fear learning) ([1]; metyrapone given before the trauma) |
| --- | --- | --- | --- | --- | --- | --- |
| Br.C[N+](C)(C)CCCCCNCC12CC3CC(CC(C3)C1)C2.[Br-] [IEM-1460, N,N,H,-Trimethyl-5-[(tricyclo[3.3.1.13,7]dec-1-ylmethyl)amino]-1-pentanaminiumbromide hydrobromide] | significantly reduces freezing in Context B; also recorded: attenuate SEFL | – | – | – | – | – |
| CC(C)(C(=O)c1cccnc1)c1cccnc1 [Metyrapone] | – | prevented GluA1 increases | significantly higher in stressed rats than in unstressed rats and metyrapone-treated rats | Neither stress nor metyrapone had an effect on GluN1 levels | Neither stress nor metyrapone had an effect on GluA2 levels | effectively preventing SEFL |
